Test results reported in ChEMBL document CHEMBL1148572, “1-((S)-2-aminopropyl)-1H-indazol-6-ol: a potent peripherally acting 5-HT2 receptor agonist with ocular hypotensive activity” (J Med Chem, 2006).

What was measured:
[1] = target: T1, Sodium-dependent noradrenaline transporter (Homo sapiens, UniProt P23975); assay: Inhibition of NET at 10 uM
[2] = Inhibition of P2Y purinergic receptor at 10 uM
[3] = target: T2, Androgen receptor (Homo sapiens) (UniProt P10275); assay: Inhibition of testosterone receptor at 100 nM
T2 sequence (whole entry): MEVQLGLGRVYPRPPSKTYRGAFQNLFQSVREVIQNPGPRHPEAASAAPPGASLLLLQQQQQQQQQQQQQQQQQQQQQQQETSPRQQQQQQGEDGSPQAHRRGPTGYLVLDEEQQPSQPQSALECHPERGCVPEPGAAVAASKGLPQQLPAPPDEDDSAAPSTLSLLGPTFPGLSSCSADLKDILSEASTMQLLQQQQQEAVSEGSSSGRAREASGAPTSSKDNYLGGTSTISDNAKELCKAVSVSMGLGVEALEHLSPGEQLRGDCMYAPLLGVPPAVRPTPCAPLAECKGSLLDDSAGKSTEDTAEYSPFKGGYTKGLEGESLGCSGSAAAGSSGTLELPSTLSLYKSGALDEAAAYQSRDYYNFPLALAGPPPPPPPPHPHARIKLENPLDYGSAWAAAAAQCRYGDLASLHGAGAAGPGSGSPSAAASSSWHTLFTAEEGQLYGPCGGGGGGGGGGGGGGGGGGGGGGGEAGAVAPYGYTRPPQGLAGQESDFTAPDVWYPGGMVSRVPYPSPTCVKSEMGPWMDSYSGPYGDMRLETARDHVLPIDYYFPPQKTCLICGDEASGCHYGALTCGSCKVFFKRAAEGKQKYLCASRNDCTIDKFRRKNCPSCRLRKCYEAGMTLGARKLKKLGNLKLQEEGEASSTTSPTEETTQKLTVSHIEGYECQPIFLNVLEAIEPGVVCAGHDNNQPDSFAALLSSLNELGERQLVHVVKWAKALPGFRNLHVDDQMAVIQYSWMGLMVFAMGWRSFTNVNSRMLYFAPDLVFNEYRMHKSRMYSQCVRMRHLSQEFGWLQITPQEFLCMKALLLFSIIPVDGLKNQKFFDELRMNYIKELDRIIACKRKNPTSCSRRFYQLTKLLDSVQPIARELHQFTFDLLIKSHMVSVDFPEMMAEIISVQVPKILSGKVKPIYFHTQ

Homo sapiens = species on record: Homo sapiens; assay: Inhibition of inositol triphosphate IP3 at 1 nM; assay type: functional
[4] = target: Estrogen receptor (Homo sapiens) (UniProt Q92731+P03372); assay: Inhibition of estrogen receptor at 10 uM; assay type: protein assay
[5] = target: T3, B2 bradykinin receptor (Homo sapiens) (UniProt P30411); assay: Inhibition of bradykinin 2 receptor at 100 nM
T3 sequence (whole entry): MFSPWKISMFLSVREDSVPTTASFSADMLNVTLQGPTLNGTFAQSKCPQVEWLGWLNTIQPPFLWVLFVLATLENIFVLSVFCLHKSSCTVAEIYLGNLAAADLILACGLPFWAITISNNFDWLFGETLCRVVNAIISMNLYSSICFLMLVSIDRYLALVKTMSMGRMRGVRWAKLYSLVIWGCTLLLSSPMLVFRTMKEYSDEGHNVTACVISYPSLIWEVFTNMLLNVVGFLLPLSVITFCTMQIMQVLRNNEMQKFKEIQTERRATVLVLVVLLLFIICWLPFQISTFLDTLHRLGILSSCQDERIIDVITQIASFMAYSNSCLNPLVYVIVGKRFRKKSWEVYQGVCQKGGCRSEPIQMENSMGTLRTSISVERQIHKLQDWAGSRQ

[6] = target: Sigma non-opioid intracellular receptor 1 (Homo sapiens) (UniProt Q99720); assay: Inhibition of non selective binding to sigma receptor at 1 nM
[7] = target: Adenosine receptor (Homo sapiens) (UniProt P30542+P29275+P0DMS8+P29274); assay: Inhibition of non selective binding to adenosine receptor at 10 uM; assay type: protein assay
[8] = target: Sigma non-opioid intracellular receptor 1 (Homo sapiens) (UniProt Q99720); assay: Inhibition of non selective binding to sigma receptor at 10 uM
[9] = target: T4, Atrial natriuretic peptide receptor 1 (Homo sapiens) (UniProt P16066); assay: Inhibition of ANP A at 100 nM
T4 sequence (whole entry): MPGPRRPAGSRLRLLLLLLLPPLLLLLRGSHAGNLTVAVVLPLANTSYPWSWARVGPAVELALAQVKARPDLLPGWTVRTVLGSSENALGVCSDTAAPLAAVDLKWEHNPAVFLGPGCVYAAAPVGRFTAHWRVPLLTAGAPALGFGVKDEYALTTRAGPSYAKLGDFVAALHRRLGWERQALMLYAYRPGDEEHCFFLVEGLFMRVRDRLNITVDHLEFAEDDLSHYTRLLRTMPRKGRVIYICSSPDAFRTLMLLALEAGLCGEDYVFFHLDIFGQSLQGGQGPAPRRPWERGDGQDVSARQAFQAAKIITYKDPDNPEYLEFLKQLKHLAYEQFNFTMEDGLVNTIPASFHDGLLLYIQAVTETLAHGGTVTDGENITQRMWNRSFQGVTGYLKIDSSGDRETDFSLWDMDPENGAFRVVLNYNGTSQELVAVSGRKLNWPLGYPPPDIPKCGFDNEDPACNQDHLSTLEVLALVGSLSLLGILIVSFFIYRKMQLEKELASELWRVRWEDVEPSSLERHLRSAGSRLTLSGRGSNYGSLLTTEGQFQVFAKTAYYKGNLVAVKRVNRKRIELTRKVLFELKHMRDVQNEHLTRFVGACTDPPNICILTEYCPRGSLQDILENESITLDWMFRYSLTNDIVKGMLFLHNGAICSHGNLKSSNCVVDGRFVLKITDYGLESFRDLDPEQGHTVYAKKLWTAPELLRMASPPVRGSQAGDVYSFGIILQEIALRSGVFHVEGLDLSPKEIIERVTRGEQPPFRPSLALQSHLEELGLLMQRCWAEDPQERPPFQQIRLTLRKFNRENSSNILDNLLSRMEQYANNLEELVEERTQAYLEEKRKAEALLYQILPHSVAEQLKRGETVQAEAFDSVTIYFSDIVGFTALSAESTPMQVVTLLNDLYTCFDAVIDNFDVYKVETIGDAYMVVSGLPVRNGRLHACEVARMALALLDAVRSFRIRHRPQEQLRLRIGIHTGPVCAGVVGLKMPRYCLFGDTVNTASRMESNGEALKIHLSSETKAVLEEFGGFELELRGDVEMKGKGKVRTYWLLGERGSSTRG

[10] = target: Protein kinase C, PKC; classical/novel (Homo sapiens) (UniProt O94806+P17252+P05129+Q05655+P05771+Q02156+P24723+Q15139+Q04759); assay: Inhibition of PDBu activated protein kinase C at 10 uM; assay type: protein assay
[11] = target: T1, Sodium-dependent noradrenaline transporter; assay: Inhibition of NET at 100 nM
[12] = target: Leukotriene B4 receptor (Homo sapiens) (UniProt Q9NPC1+Q15722); assay: Inhibition of leukotriene B4 at 1 nM; assay type: protein assay
Chain of Leukotriene B4 receptor (Homo sapiens) (Q15722 whole entry, looked up): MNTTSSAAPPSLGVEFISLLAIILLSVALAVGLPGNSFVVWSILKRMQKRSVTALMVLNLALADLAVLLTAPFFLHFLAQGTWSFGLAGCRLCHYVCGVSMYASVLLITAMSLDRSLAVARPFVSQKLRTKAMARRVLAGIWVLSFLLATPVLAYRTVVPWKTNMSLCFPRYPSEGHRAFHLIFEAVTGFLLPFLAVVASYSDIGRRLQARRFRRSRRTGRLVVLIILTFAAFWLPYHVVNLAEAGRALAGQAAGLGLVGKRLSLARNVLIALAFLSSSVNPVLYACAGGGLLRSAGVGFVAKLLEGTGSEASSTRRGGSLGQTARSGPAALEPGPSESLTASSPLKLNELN
Chain of Leukotriene B4 receptor (Homo sapiens) (Q9NPC1 whole entry, looked up): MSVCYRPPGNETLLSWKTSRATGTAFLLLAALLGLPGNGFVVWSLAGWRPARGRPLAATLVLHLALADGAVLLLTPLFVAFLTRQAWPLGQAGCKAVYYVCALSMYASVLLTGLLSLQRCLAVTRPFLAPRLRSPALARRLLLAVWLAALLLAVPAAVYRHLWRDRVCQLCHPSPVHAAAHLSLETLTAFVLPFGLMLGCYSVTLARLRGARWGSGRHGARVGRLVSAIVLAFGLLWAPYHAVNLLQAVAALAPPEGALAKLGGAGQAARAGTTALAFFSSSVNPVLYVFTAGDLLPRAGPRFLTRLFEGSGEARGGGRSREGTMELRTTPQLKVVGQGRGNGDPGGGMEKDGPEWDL

Chain of Sigma non-opioid intracellular receptor 1 (Homo sapiens) (Q99720 whole entry): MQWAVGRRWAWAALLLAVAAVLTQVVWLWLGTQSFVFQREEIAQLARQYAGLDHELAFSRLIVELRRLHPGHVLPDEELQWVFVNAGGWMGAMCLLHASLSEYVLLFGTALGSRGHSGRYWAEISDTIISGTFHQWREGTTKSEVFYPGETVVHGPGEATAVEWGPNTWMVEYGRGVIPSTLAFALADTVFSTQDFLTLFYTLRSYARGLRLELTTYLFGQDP
T1 sequence (P23975 whole entry): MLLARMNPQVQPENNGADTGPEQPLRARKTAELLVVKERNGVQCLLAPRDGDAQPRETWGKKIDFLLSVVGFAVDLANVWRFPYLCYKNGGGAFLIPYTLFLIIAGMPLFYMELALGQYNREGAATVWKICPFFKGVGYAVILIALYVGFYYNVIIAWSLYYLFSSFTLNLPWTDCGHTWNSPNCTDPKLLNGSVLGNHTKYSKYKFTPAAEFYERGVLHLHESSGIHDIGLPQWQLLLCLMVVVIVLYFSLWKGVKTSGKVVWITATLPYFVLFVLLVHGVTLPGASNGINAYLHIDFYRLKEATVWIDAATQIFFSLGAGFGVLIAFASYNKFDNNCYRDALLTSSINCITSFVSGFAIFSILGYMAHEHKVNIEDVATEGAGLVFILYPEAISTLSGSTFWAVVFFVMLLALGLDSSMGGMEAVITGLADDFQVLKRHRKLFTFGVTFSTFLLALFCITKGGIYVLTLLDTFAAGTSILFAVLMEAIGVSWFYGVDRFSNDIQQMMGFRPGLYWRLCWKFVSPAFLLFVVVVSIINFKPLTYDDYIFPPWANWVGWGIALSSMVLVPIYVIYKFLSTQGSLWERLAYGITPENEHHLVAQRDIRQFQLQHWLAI
Chain of Adenosine receptor (Homo sapiens) (P0DMS8 whole entry, looked up): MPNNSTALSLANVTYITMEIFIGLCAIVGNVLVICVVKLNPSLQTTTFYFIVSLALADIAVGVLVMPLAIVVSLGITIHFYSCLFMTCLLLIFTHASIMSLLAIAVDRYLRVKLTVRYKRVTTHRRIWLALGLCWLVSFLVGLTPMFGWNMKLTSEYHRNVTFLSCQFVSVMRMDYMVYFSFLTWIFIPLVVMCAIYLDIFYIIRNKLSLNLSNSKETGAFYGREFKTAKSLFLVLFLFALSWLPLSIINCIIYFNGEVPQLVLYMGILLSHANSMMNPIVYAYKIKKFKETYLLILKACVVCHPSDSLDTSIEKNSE
Chain of Adenosine receptor (Homo sapiens) (P29274 whole entry, looked up): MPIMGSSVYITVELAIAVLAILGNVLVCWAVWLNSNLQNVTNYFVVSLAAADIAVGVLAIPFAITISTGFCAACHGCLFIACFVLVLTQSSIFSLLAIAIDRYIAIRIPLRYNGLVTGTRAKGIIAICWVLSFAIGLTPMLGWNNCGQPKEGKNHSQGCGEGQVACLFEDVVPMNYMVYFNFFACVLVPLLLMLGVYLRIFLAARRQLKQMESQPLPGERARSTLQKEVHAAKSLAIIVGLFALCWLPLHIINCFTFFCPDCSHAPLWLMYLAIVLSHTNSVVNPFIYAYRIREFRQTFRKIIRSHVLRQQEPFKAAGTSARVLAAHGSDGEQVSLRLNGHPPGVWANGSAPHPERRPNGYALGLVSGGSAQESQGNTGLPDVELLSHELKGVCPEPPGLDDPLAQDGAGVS
Chain of Adenosine receptor (Homo sapiens) (P29275 whole entry, looked up): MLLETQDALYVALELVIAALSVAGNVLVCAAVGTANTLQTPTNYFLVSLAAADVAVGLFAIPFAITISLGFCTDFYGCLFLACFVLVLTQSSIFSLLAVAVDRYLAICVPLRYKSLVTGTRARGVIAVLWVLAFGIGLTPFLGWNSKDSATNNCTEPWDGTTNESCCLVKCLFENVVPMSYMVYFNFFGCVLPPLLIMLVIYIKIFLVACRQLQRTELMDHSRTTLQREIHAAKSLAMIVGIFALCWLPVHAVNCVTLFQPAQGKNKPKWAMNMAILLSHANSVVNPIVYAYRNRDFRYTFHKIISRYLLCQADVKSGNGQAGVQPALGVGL
Chain of Adenosine receptor (Homo sapiens) (P30542 whole entry, looked up): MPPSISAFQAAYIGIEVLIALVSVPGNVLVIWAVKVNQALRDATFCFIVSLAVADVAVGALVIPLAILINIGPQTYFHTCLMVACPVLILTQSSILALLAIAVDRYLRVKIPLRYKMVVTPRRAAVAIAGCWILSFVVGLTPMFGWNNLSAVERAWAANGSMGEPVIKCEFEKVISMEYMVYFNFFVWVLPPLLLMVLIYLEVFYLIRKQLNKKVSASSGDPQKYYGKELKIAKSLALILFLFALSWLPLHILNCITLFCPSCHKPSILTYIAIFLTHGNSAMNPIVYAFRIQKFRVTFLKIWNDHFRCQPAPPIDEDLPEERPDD

With C[C@H](N)Cn1ncc2ccc(O)cc21 the inhibition [1] was 42.6%, the inhibition [2] was 12.2% and the inhibition [3] was 0.86%. It also gave an inhibition (Homo sapiens) of 6.53%, an inhibition [4] of 17.7% and an inhibition [5] of 0.41%. The inhibition [6] was -2.35%, the inhibition [7] was 13.2% and the inhibition [8] was -7.73%. It also gave an inhibition [9] of 3.01%, an inhibition [10] of 22.8% and an inhibition [11] of 3.93%. The inhibition [12] was 0.44%.
